Test results taken from US7968529B2, “Use of sphingolipids for reducing high plasma cholesterol and high triacylglycerol levels” (Nederlandse Organisatie Voor …, priority 2003, dated 2011).

Experiments:
Assay type in all cases: in vivo
[1] = tested on: APOE*3Leiden transgenic mice; assay: Plasma cholesterol in APOE*3Leiden transgenic mice fed a Western-type diet with sphingolipid
Source text: (§1) In this experiment mice were used in which the human gene for the so-called Leiden mutation of apolipoprotein E3 (APOE*3Leiden transgenic mice) had been incorporated by transgenesis. Because of this transgenic change, these so-called APOE*3Leiden mice have a humanized lipoprotein profile, and are extremely suitable for studying the effect of compounds on lipoprotein metabolism (Van Vlijmen et. al. 1996. J Clin Invest. 97:1184-1192; Van Vlijmen et. al. 1998. Arzneimittelforschung 1998; 48:396-402.).
(§2) The study design was as follows: female mice were fed for 5 weeks “Western-type” diet (Nishina et al. 1990. J Lipid Res. 31:859-869) containing 0.25% (w/w) cholesterol. Specifically, the diet contained 15% (all w/w) cocoabutter, 0.25% cholesterol, 1% corn oil, 40.5% sucrose, 20% acid casein, 10% corn starch and 5.95% cellulose, as major ingredients. This diet increased their plasma cholesterol level to about 15 mmol/L. Subsequently, the mice were randomized, on the basis of their plasma cholesterol level, into groups of six mice each. These groups were given the same diet, but containing in addition: • Group 1 no addition • Group 2 0.1% (w/w) phytosphingosine • Group 3 0.1% (w/w) sphingosine • Group 4 0.1% (w/w) sphinganine • Group 5 0.1% (w/w) cerebroside • Group 6 0.1% (w/w) ceramide IV • Group 7 0.1% (w/w) sphingomyelin
(§3) The phytosphingosine, ceramide IV and cerebroside (=glucosyl ceramide) were obtained from Cosmoferm BV (Delft, The Netherlands). Sphingomyelin from egg was obtained from Larodan Fine Chemicals AB (Stockholm, Sweden) and sphingosine and sphinganine were obtained from Avanti Polar Lipids Inc, (Alabaster, Ala., USA). During the experiment, body weight and food intake were monitored. At three weeks after the dietary change, blood was taken to determine plasma cholesterol and triglyceride levels. Also, the plasma lipoprotein pattern was determined group wise in pooled samples by fplc. Then, the concentration of the additives was changed to 0.2%, and feeding continued for another 3 weeks. At three weeks after this dietary change, blood was again taken to determine plasma cholesterol and triglyceride levels, and the plasma lipoprotein pattern was determined group wise in pooled samples by fplc. The dietary additives were then changed to 0.4% (w/w), and the same cycle of feeding and blood sampling was executed.
(§4) In a separate experiment, groups of six APOE*3Leiden mice were fed the above-described Western-type diet, containing 1.0% (w/w) of phytosphingosine. At the end of the treatment period, plasma cholesterol was reduced with 58% (p=0.007) and plasma triglyceride was reduced with 64% (p=0.01) with respect to the control group.

[2] = tested on: APOE*3Leiden transgenic mice; assay: Plasma triglycerides in APOE*3Leiden transgenic mice fed a Western-type diet with sphingolipid
Source text: as §1, §2, §3, §4

[3] = tested on: APOE*3Leiden transgenic mice; assay: Plasma lipoprotein distribution pattern by fplc in pooled samples; conditions: separate experiment, 1.0% (w/w) in diet
Source text: as §3, with “executed. […] In a separate experiment, groups of six APOE*3Leiden mice were fed the above-described Western-type diet, containing 1.0% (w/w) of phytosphingosine. At the end of the treatment period, plasma cholesterol was reduced with 58% (p=0.007) and plasma triglyceride was reduced with 64% (p=0.01) with respect to the control group.” for “executed.”

[4] = t = 0, baseline after 5 weeks Western-type diet, before addition of sphingolipid, female mice, group mean
[5] = t = 3 (weeks), 0.1% (w/w) in diet
[6] = t = 6 (weeks), 0.2% in diet for the last 3 weeks
[7] = t = 9 (weeks), 0.4% (w/w) in diet for the last 3 weeks

Compound | Plasma cholesterol levels [1, 4] | Plasma cholesterol levels [1, 5] | Plasma cholesterol reduction relative to control ([1]; t = 3 (weeks), 0.1% in diet) | Plasma cholesterol reduction relative to control ([1]; t = 6 (weeks), 0.2% in diet) | Plasma cholesterol levels [1, 6] | Plasma cholesterol levels [1, 7] | Plasma cholesterol reduction relative to control ([1]; t = 9 (weeks), 0.4% in diet) | Plasma triglyceride levels [2, 4] | Plasma triglyceride levels [2, 5] | Plasma triglyceride reduction relative to control ([2]; t = 3 (weeks), 0.1% in diet) | Plasma triglyceride reduction relative to control ([2]; t = 6 (weeks), 0.2% in diet) | Plasma triglyceride levels [2, 6] | Plasma triglyceride levels [2, 7] | Plasma triglyceride reduction relative to control ([2]; t = 9 (weeks), 0.4% in diet) | lipoprotein fractions accounting for the decrease of cholesterol and triglycerides (fplc) [3] | plasma cholesterol reduced with respect to the control group ([1]; separate experiment, 1.0% (w/w) in Western-type diet, end of treatment period, p=0.007) | plasma triglyceride reduced with respect to the control group ([2]; separate experiment, 1.0% (w/w) in Western-type diet, end of treatment period, p=0.01)
glucosyl ceramide [CEREBROSIDE] | 14.8 mmol/L | 14.2 mmol/L | 5.2% | 25.6% | 11.7 mmol/L | 12.8 mmol/L | 23.4% | 2.2 mmol/L | 2.2 mmol/L | −1.2% | 42.0% | 1.2 mmol/L | 1.8 mmol/L | 21.9% | – | – | –
CCCCCCCCCCCCC/C=C/[C@@H](O)[C@@H](N)CO [SPHINGOSINE, sphingosine] | 14.6 mmol/L | 15.3 mmol/L | −2.1% | 29.7% | 11.0 mmol/L | 9.5 mmol/L | 43.3% | 2.3 mmol/L | 2.2 mmol/L | −0.6% | 32.5% | 1.4 mmol/L | 1.0 mmol/L | 54.3% | – | – | –
CCCCCCCCCCCCCC[C@@H](O)[C@@H](O)[C@@H](N)CO [PHYTOSPHINGOSINE, phytosphingosine] | 14.4 mmol/L | 13.2 mmol/L | 11.6% | 19.7% | 12.6 mmol/L | 10.9 mmol/L | 34.8% | 2.1 mmol/L | 1.7 mmol/L | 22.9% | 39.8% | 1.2 mmol/L | 1.5 mmol/L | 34.8% | fully due to a decrease in VLDL and IDL/LDL fractions | 58% | 64%
ceramide IV | 15.6 mmol/L | 14.8 mmol/L | 1.5% | 19.4% | 12.6 mmol/L | 11.7 mmol/L | 29.9% | 2.3 mmol/L | 2.0 mmol/L | 8.5% | 49.1% | 1.1 mmol/L | 1.4 mmol/L | 38.4% | – | – | –
CCCCCCCCCCCCCCC[C@@H](O)[C@@H](N)CO [SPHINGANINE, sphinganine] | 15.9 mmol/L | 14.9 mmol/L | 0.3% | 36.2% | 10.0 mmol/L | 11.5 mmol/L | 31.2% | 2.3 mmol/L | 1.7 mmol/L | 19.2% | 52.9% | 1.0 mmol/L | 1.2 mmol/L | 44.9% | – | – | –
sphingomyelin | 15.1 mmol/L | 14.7 mmol/L | 1.9% | 36.8% | 9.9 mmol/L | 8.7 mmol/L | 48.2% | 2.5 mmol/L | 1.7 mmol/L | 19.9% | 42.7% | 1.2 mmol/L | 0.9 mmol/L | 59.5% | – | – | –
